ChEMBL document CHEMBL1130654, “New phthalimide derivatives with potent analgesic activity: II” (1998)

Assays:
Assay type in all cases: functional
Mus musculus [1] = assay: Inhibition of acetic acid induced writhing in mice at dose of 3.12 mg/kg
Mus musculus [2] = assay: Inhibition of acetic acid induced writhing in mice at dose of 6.25 mg/kg
Mus musculus [3] = assay: Inhibition of acetic acid induced writhing in mice at dose of 1.56 mg/kg
Mus musculus [4] = assay: Inhibition of acetic acid induced writhing in mice at dose of 12.5 mg/kg
Mus musculus [5] = assay: Inhibition of acetic acid induced writhing in mice at dose of 25.0 mg/kg
Mus musculus [6] = assay: Compound was tested for hyperalgesia in mice induced by formalin expressed as time of licking at late phase(up to 30 min) at dose 25 mg/kg
Mus musculus [7] = assay: Compound was tested for hyperalgesia in mice induced by formalin expressed as time of licking at initial phase(up to 5 min)at dose 25 mg/kg
Mus musculus [8] = assay: Inhibition of acetic acid induced writhing in mice at dose of 25 mg/kg
Mus musculus [9] = assay: Inhibition of acetic acid induced writhing in mice at dose of 100 mg/kg
Mus musculus [10] = assay: Inhibition of acetic acid induced writhing in mice at dose of 50 mg/kg
Mus musculus [11] = assay: Compound was tested for hyperalgesia in mice induced by formalin expressed as time of licking at initial phase(up to 5 min) at 400 mg/kg
Mus musculus [12] = assay: Compound was tested for hyperalgesia in mice induced by formalin expressed as time of licking at late phase(up to 30 min) at 400 mg/kg
Mus musculus [13] = assay: Inhibition of acetic acid induced writhing in mice at dose of 200 mg/kg
Mus musculus [14] = assay: Compound was tested for hyperalgesia in mice induced by formalin expressed as time of licking at initial phase(up to 5 min) at dose 10 mg/kg
Mus musculus [15] = assay: Compound was tested for hyperalgesia in mice induced by formalin expressed as time of licking at late phase(up to 30 min) at dose 10 mg/kg

| SMILES | ID50 (Mus musculus [1]) | inhibition in vivo at 3.12 mg/kg (Mus musculus [1]) [%] | inhibition in vivo at 6.25 mg/kg (Mus musculus [2]) [%] | inhibition in vivo at 1.56 mg/kg (Mus musculus [3]) [%] | inhibition in vivo at 12.5 mg/kg (Mus musculus [4]) [%] | further results |
| --- | --- | --- | --- | --- | --- | --- |
| O=C1c2ccccc2C(=O)N1Cc1nc(-c2ccc([N+](=O)[O-])cc2)no1 | 4.1 | 47.4 | 62.9 | 29.8 |  |  |
| COc1ccc(-c2noc(CN3C(=O)c4ccccc4C3=O)n2)cc1 |  | 20.7 | 41.9 |  | 53.3 | ID50 (Mus musculus [4]): 14.9; inhibition in vivo at 25 mg/kg (Mus musculus [5]): 62.6% |
| Cc1ccccc1-c1noc(CN2C(=O)c3ccccc3C2=O)n1 | 3.1 | 76.5 | 80.5 | 12.1 |  |  |
| Cc1cccc(-c2noc(CN3C(=O)c4ccccc4C3=O)n2)c1 | 2.9 | 67.1 | 79.2 | 25.5 |  |  |
| O=C1c2ccccc2C(=O)N1Cc1nc(-c2ccccc2)no1 | 2.2 | 67.1 | 73.8 | 38.9 |  | Time of licking (Mus musculus [6]): 143 s; Time of licking (Mus musculus [7]): 84 s |
| O=C1c2ccccc2C(=O)N1Cc1nc(-c2ccc(Cl)cc2)no1 |  |  | 16.3 |  | 35.1 | ID50 (Mus musculus [4]): 20.3; inhibition in vivo at 25 mg/kg (Mus musculus [8]): 59.6% |
| Cc1ccc(-c2noc(CN3C(=O)c4ccccc4C3=O)n2)cc1 |  | 16.1 | 62.4 |  | 72.5 | ID50 (Mus musculus [2]): 7.2 |
| CC(=O)Oc1ccccc1C(=O)O [ASPIRIN] |  |  |  |  |  | ID50 (Mus musculus [9]): 80.8; inhibition in vivo at 100 mg/kg (Mus musculus [9]): 61.7%; inhibition in vivo at 50 mg/kg (Mus musculus [10]): 38.2%; Time of licking (Mus musculus [11]): 48 s; Time of licking (Mus musculus [12]): 0 s; inhibition in vivo at 200 mg/kg (Mus musculus [13]): 74% |
| CN1CC[C@]23c4c5ccc(O)c4O[C@H]2[C@@H](O)C=C[C@H]3[C@H]1C5 [MORPHINE] |  |  |  |  |  | Time of licking (Mus musculus [14]): 41 s; Time of licking (Mus musculus [15]): 0 s |
